Laboratory results: publication PMC4232510, “Identification of Functionally Important Residues of the Rat P2X4 Receptor by Alanine Scanning Mutagenesis of the Dorsal Fin and Left Flipper Domains” (PLoS ONE, 2014)
Where a chain is given by its changes, count along the chain named.

Experiments:
Assay in all cases: whole-cell patch clamp, HEK293T cells expressing mutant
Type in all cases: cell-based
Details in all cases: for relative responsiveness: 100 µM agonist 2 s, relative to ATP (100%)
rP2X4R N208A mutant = molecular target: T1, rP2X4R N208A mutant (Rattus norvegicus, UniProt P51577, N208A)
T1 construct: expressed in transfected cells; host or cells: HEK293T
T1 sequence (P51577 1-388 N208A): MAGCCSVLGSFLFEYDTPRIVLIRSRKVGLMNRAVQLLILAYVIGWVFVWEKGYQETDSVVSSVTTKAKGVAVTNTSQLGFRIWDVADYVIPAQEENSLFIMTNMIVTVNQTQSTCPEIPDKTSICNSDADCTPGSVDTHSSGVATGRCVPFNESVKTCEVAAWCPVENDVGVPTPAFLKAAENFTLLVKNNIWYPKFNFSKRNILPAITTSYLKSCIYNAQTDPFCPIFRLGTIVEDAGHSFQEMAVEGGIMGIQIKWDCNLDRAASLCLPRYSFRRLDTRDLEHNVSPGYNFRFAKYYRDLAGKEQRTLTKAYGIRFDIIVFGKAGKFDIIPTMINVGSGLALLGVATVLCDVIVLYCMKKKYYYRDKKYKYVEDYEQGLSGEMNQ
Description: (§1) To express the recombinant channels, we used human embryonic kidney (HEK) 293T cells (American Type Culture Collection, Rockville, MD, USA) grown in Dulbecco modified Eagle’s medium (Thermo Fisher Scientific, Waltham, MA) supplemented with 10% fetal bovine serum (Sigma-Aldrich, St Louis, MO), 50 U/ml penicillin and 50 µg/ml streptomycin (both Thermo Fisher Scientific, Waltham, MA) in a humidified 5% CO2 and 95% air at 37°C. Cells were cultured in 75 cm^2 plastic culture flasks (NUNC, Rochester, NY) for 36–72 hours until reaching 80–95% confluence. Before the day of transfection, the cells were plated on 35 mm culture dishes (Sarstedt, Newton, NC) and incubated at 37°C for at least 24 h. Transfection was done using 2 µg of either WT or mutant receptor DNA with 2 µl of JetPrime reagent in 2 ml of Dulbecco modified Eagle’s medium, according to manufacturer’s instructions (PolyPlus-transfection, Illkirch, France). Transfected cells were identified by the fluorescence signal of EGFP using the Olympus IX71 inverted research microscope with fluorescence illuminators (Model IX71; Olympus, Melville, NY).
(§2) cDNAs encoding the sequences of the rP2X4 and mutated subunits were subcloned into the pIRES2-EGFP vector (Clontech, Mountain View, CA, USA). To generate the mutants, oligonucleotides (synthesized and provided by VBC-Genomics, Vienna, Austria or Sigma Aldrich) containing specific mutagenesis mismatches were introduced into the rP2X4/pIRES2-EGFP template using PfU Ultra DNA polymerase (Thermo Fisher Scientific). A High-Speed Plasmid Mini Kit (Geneaid, Taipei City, Taiwan) was used to isolate the plasmids for transfection. Dye terminator cycle sequencing (ABI PRISM 3100, Applied Biosystems, Foster City, CA) was used to identify and verify the presence of the mutations. The sequencing was performed by the DNA Sequencing Laboratory, Institute of Microbiology, ASCR, Prague.
(§3) ATP-induced currents were recorded from whole cells clamped to −60 mV using an Axopatch 200B patch-clamp amplifier (Axon Instruments, Union City, CA). The recordings were captured and stored using the Digidata 1322A and pClamp9 software package (Axon Instruments). During the experiments, the cell culture was perfused with a bath solution containing: 142 mM NaCl, 3 mM KCl, 2 mM CaCl2, 1 mM MgCl2, 10 mM 4-(2-Hydroxyethyl)piperazine-1-ethanesulfonic acid (HEPES) and 10 mM D-glucose, adjusted to pH 7.3 with 1 M NaOH. The patch electrodes were filled with a solution containing: 154 mM CsCl, 11 mM EGTA and 10 mM HEPES, adjusted to pH 7.2 with 1.6 M CsOH. The whole-cell configuration was used to abolish the influence of natively present metabotropic receptors for ATP and we used intracellular cesium to block any kind of possible background potassium conductance. Potency of ATP was measured based on the activation of naïve (not previously stimulated) receptors using a short (2–5 s) application of various concentrations of ATP. The results are expressed as molar concentration of ATP required to produce 50% of the maximal response (EC50). One or two responses were recorded from one cell, if not otherwise stated, and responses from different cells were pooled. The maximum current amplitude (Imax) was measured in response to application of supramaximal concentrations (100–1000 µM) of ATP. Responsiveness to P2XR agonists 2-MeS-ATP, ATPγS, BzATP, and α,β-meATP, all applied in 100 µM concentration, was expressed as percentage of response in comparison to 100 µM ATP treatment for selected mutants. In all mutants, the whole cell currents were also measured in the presence of 3 µM IVM, which was dissolved in dimethyl sulfoxide, stored in stock solutions at 10 mM, and diluted to required concentrations in bath solution in the day of experiment. The control and drug containing solutions were applied via a rapid (exchange time 30–40 ms) perfusion system (RSC-200, BIOLOGIC, Claix, France). All other chemicals are from Sigma-Aldrich. […]

rP2X4R S212A mutant = molecular target: T2, rP2X4R S212A mutant (Rattus norvegicus, UniProt P51577, S212A)
T2 construct: expressed in transfected cells; host or cells: HEK293T
T2 sequence (P51577 1-388 S212A): T1 sequence (P51577 1-388 N208A) with A208N, S212A
Description: as §1, §2, §3

rP2X4R T281A mutant = molecular target: T3, rP2X4R T281A mutant (Rattus norvegicus, UniProt P51577, T281A)
T3 construct: expressed in transfected cells; host or cells: HEK293T
T3 sequence (P51577 1-388 T281A): T1 sequence (P51577 1-388 N208A) with A208N, T281A
Description: as §1, §2, §3

[1] = 100 µM ATP 60 s, biexponential fit
[2] = contribution of τdes2, 100 µM ATP 60 s
[3] = decay after removal of 1 or 3 µM ATP, 3 µM IVM
[4] = naïve receptors, 2–5 s application
[5] = 3 µM IVM 4-6 min vs IVM-untreated

**Q.** What does the source list for “2′(3′-O-(4-Benzoylbenzoyl)adenosine 5′-triphosphate [BzATP]”?
**A.** relative responsiveness (rP2X4R N208A mutant): 33.4±5.4%; relative responsiveness (rP2X4R S212A mutant): 47.5±5.2%; relative responsiveness (rP2X4R T281A mutant): 26.7±3.9%

**Q.** What does the source list for CSc1nc(N)c2ncn([C@@H]3O[C@H](COP(=O)(O)OP(=O)(O)OP(=O)(O)O)[C@@H](O)[C@H]3O)c2n1 [2-MeS-ATP, 2-(Methylthio)adenosine 5′-triphosphate]?
**A.** relative responsiveness (rP2X4R N208A mutant): 60.0±11.2%; relative responsiveness (rP2X4R S212A mutant): 65.1±19.7%; relative responsiveness (rP2X4R T281A mutant): 69.6±5.1%

**Q.** Which τdes1 (rP2X4R N208A mutant; [1]) does the source give for Nc1ncnc2c1ncn2[C@@H]1O[C@H](COP(=O)(O)OP(=O)(O)OP(=O)(O)O)[C@@H](O)[C@H]1O [ATP] here?
**A.** The τdes1 was 1.1 ± 0.8 s.

**Q.** What about the τdes2 (rP2X4R N208A mutant; [1]) of the same molecule?
**A.** Its τdes2 is 8.7 ± 4.8 s.

**Q.** What about the Imax (rP2X4R N208A mutant; 100–1000 µM ATP) of the same molecule?
**A.** Its Imax is 1.7 ± 0.3 nA.

**Q.** What about the “Imax+IVM” value (rP2X4R N208A mutant; ATP after 3 µM IVM 4-6 min) of the same molecule?
**A.** Its value is 3.6 ± 0.3 nA.

**Q.** And the “A2 /(A1+A2)” value (rP2X4R N208A mutant; [2])?
**A.** Its value is 77 ± 4%.

**Q.** What about the “τoff +IVM” value (rP2X4R N208A mutant; [3]) of the same molecule?
**A.** Its value is 9.1 ± 0.2 s.

**Q.** What about the EC50 (rP2X4R N208A mutant; [4]) of the same molecule?
**A.** The EC50 was 7.6 ± 2.1 µM.

**Q.** What about the τdes (rP2X4R N208A mutant; weighted, 100 µM ATP 60 s) of the same molecule?
**A.** Its τdes is 6.8 ± 3.5 s.

**Q.** What about the τdes1 (rP2X4R S212A mutant; [1]) of the same molecule?
**A.** The τdes1 was 1.7 ± 0.4 s.

**Q.** What about the τdes2 (rP2X4R S212A mutant; [1]) of the same molecule?
**A.** The τdes2 was 11.4 ± 1.5 s.

**Q.** What about the Imax (rP2X4R S212A mutant; 100–1000 µM ATP) of the same molecule?
**A.** Its Imax is 2.1 ± 0.2 nA.

**Q.** What about the “Imax+IVM” value (rP2X4R S212A mutant; ATP after 3 µM IVM 4-6 min) of the same molecule?
**A.** The value was 3.4 ± 0.2 nA.

**Q.** And the “A2 /(A1+A2)” value (rP2X4R S212A mutant; [2])?
**A.** Its value is 62 ± 5%.

**Q.** And the “τoff +IVM” value (rP2X4R S212A mutant; [3])?
**A.** The value was 20 ± 5.0 s.

**Q.** And the EC50 (rP2X4R S212A mutant; [4])?
**A.** The EC50 was 4.8 ± 1.2 µM.

**Q.** What about the τdes (rP2X4R S212A mutant; weighted, 100 µM ATP 60 s) of the same molecule?
**A.** Its τdes is 7.8 ± 1.1 s.

**Q.** What about the τdes1 (rP2X4R T281A mutant; [1]) of the same molecule?
**A.** Its τdes1 is 2.4 ± 0.4 s.

**Q.** What about the τdes2 (rP2X4R T281A mutant; [1]) of the same molecule?
**A.** Its τdes2 is 15.6 ± 2.3 s.

**Q.** What about the Imax (rP2X4R T281A mutant; 100–1000 µM ATP) of the same molecule?
**A.** Its Imax is 2.3 ± 0.3 nA.

**Q.** What about the “Imax+IVM” value (rP2X4R T281A mutant; ATP after 3 µM IVM 4-6 min) of the same molecule?
**A.** The value was 4.8 ± 0.9 nA.

**Q.** What about the “A2 /(A1+A2)” value (rP2X4R T281A mutant; [2]) of the same molecule?
**A.** The value was 72 ± 12%.

**Q.** What about the “τoff +IVM” value (rP2X4R T281A mutant; [3]) of the same molecule?
**A.** Its value is 13 ± 1.0 s.

**Q.** What about the EC50 (rP2X4R T281A mutant; [4]) of the same molecule?
**A.** The EC50 was 8.2 ± 2.8 µM.

**Q.** What about the τdes (rP2X4R T281A mutant; weighted, 100 µM ATP 60 s) of the same molecule?
**A.** The τdes was 12 ± 2.4 s.

**Q.** How did the relative responsiveness (rP2X4R N208A mutant) turn out when Nc1ncnc2c1ncn2[C@@H]1O[C@H](CO[P@](=O)(O)O[P@](=O)(O)O[P@@](=O)(O)S)[C@@H](O)[C@H]1O [ATPγS, Adenosine 5′-(γ-thio)triphosphate] was run?
**A.** Its relative responsiveness is 42.2±5.2%.

**Q.** And the relative responsiveness (rP2X4R S212A mutant)?
**A.** Its relative responsiveness is 61.7±3.9%.

**Q.** What about the relative responsiveness (rP2X4R T281A mutant) of the same molecule?
**A.** Its relative responsiveness is 50.2±5.9%.

**Q.** How did the “Fold incr. Imax” value (rP2X4R N208A mutant; [5]) turn out when CC[C@H](C)[C@H]1O[C@]2(CC[C@@H]1C)C[C@@H]1C[C@@H](C/C=C(\C)[C@@H](O[C@H]3C[C@H](OC)[C@@H](O[C@H]4C[C@H](OC)[C@@H](O)[C@H](C)O4)[C@H](C)O3)[C@@H](C)/C=C/C=C3\CO[C@@H]4[C@H](O)C(C)=C[C@@H](C(=O)O1)[C@]34O)O2 [IVM, ivermectin] was run?
**A.** The value was 2.3 ± 0.5 fold.

**Q.** What about the “Fold incr. Imax” value (rP2X4R S212A mutant; [5]) of the same molecule?
**A.** The value was 1.6 ± 0.2 fold.

**Q.** And the “Fold incr. Imax” value (rP2X4R T281A mutant; [5])?
**A.** Its value is 2.1 ± 0.2 fold.

**Q.** Nc1ncnc2c1ncn2C1OC(COP(=O)(O)CP(=O)(O)OP(=O)(O)O)C(O)C1O (stereo not drawn) [α,β-meATP, α,β-methyleneadenosine 5′-triphosphate] was tested. Which relative responsiveness (rP2X4R N208A mutant) did it give?
**A.** The relative responsiveness was 28.5±2.3%.

**Q.** And the relative responsiveness (rP2X4R S212A mutant)?
**A.** Its relative responsiveness is 19.2±6.2%.

**Q.** What about the relative responsiveness (rP2X4R T281A mutant) of the same molecule?
**A.** Its relative responsiveness is 28.2±5.5%.
